Reference: patent US8163700B2, “Inhibitors of myelin-associated glycoprotein (MAG) activity for regulating neural growth and regeneration” (Research Foundation of City University of New York, priority 2002, dated 2012)
“Also recorded” adds a separate entry of the source.

Legend:
[1] = test system: cerebellar neurons on CHO cells expressing MAG; experiment: Neurite outgrowth on MAG-expressing CHO cells in the presence of MAG peptides (FIGS. 4 and 5); format: cell-based; conditions: for attenuation of inhibition of neurite outgrowth by MAG: peptide 20 μM, 18 hours, FIG. 5; for effect on the ability of MAG-expressing cells to inhibit neurite outgrowth / neurite length relative to neurites extended without peptide or with MAG Igd4 peptides: peptide 15 μM, overnight, FIG. 4; for neurite length relative to neurites extended without peptide or with MAG Igd4 peptides: neurons on MAG-expressing cells
Description: FIG. 4 Inhibition of neurite outgrowth from cerebellar neurons by MAG; peptides Cerebellar neurons were isolated (Example 1) and grown overnight on a monolayer of control-transfected CHO cells (not shown) or CHO cells expressing MAG in the absence (striped bar) or the presence (grey bars) of MAG peptides (15 μM) derived from MAG Ig-like domain 4 or 5. Neurons were stained for GAP-43 antigen and neurite length was measured. Results are shown as number of neurons in each treatment having neurites longer than two times the length of the cell body.
FIG. 5 Inhibition of neurite outgrowth from cerebellar neurons by MAG peptides Cerebellar neurons were isolated (Example 1) and grown for 18 hrs on a monolayer of control-transfected CHO cells (R2) or CHO cells expressing MAG in the absence of a peptide (MAG) or in the presence of a peptide derived from sialoadhesin Ig-like domain 5 (non-MAG “control peptide”) or a MAG peptide (M433 or M462 at 20 μM) derived from MAG Ig-like domain 5. Neurons were stained for GAP-43 antigen and neurite length was measured and the average length was calculated for 180-200 neurons (+/−SEM).
Confluent monolayers of control, MAG-, truncated MAG- or chimeric MAG-Sn-expressing CHO cells were established over a 24-hour (h) period in individual chambers of an 8-well tissue culture slide (Lab-Tek). Co-cultures were established as described previously (Doherty et al., Nature, 343, pp. 464-66 (1990); Neuron, 5, pp. 209-19 (1990); Mukhopadhyay et al., Neuron, 13, pp. 757-67 (1994)) by adding approximately 5000 cerebellar neurons to the CHO monolayers. Culture medium was SATO containing 2% FCS. After periods of time as indicated, the co-cultures were fixed for 30 minutes (min) with 4% paraformaldehyde and permeabilized with ice-cold methanol for 2 min. The cells were then blocked for 30 min with DMEM containing 10% FCS and incubated for 2 h with a rabbit polyclonal antibody against the neuronal marker GAP43 (1:4000). Cells were washed three times with PBS-BSA (2%) and then incubated for 30 min at room temperature with a biotinylated donkey anti-rabbit Ig (1:300, Amersham), washed three times, and incubated with streptavidin-conjugated Texas Red (1:300, Amersham) for 30 min. After three more washes, the slides were mounted in Permfluor (Baxter) and viewed with a Zeiss fluorescent microscope. The length of the longest neurite for each GAP43-positive neuron was determined using the Biological Detection System image analysis program (Pittsburgh).
Peptides corresponding to amino acid residues […] of MAG (MAG(343-371)), amino acid residues 363-397 (MAG(363-397)), amino acid residues 394-428 (MAG(394-428)), amino acid residues 422-451 (MAG(422-451)), amino acid residues 442-471 (MAG(442-471)), and amino acid residues 461-498 (MAG(461-498)) were synthesized. Peptides were obtained from SynPep Corp. (Dublin, Calif.). MAG(343-371), MAG(363-397) and MAG(394-428) correspond to amino acid residues from the Ig4 domain of MAG. MAG(422-451), MAG(442-471) and MAG(461-498) corresponds to amino acid residues from the Ig5 domain of MAG. […] Results are shown in FIG. 4 (and are represented as number of neurons with processes longer than 2-times the cell diameter). […] Results are shown in FIG. 5 (and are represented as average neurite length for 180-200 neurons).

cerebellar neurons = experiment: Neurite outgrowth on L1-Fc substrate in the presence of soluble MAG-Fc chimeras (FIG. 3); format: cell-based; conditions: soluble protein 25 μg/ml, 18 hours, compared to control chimera
Description: FIG. 3 Inhibition of neurite outgrowth from cerebellar neurons by MAG-Fc Derivatives Cerebellar neurons were isolated (Example 1) and plated onto a growth promoting substrate of L1 protein (Example 4). A control MUC-Fc fusion (clear bar), wild-type MAG-Fc (striped bar) and MAG-Fc derivatives having point mutations in MAG Ig-like domains 4 or 5 (grey bars) were constructed (Example 4) and added in soluble form to neurons (25 μg/ml). After 18 hours, cultures were fixed and stained for GAP-43 antigen. Neurite length was measured and the average length was calculated for 180-200 neurons (+/−SEM).
Individual wells of an eight-chamber tissue culture plastic slide (Lab-Tek, Nuc. Inc.) were incubated with 0.3 nil of 16.6 μg/ml poly-1-lysine in sterile water for at least one hour under sterile conditions. Each well was washed twice with 400 μl of a 0.1M sodium bicarbonate solution, pH 9.6, and then received 0.3 ml of 0.1M sodium bicarbonate solution, pH 9.6, containing 15 μg/ml goat anti-human IgG (Fc-specific) monoclonal antibody (Sigma). The wells were incubated for 2 hours (h) at 37° C., and washed three times with 0.4 ml of ice-cold DMEM. Each well then received 0.3 nil of DMEM containing 40 μg/ml of L1-Fc and was incubated for 2-4 h at 37° C. The welts were washed twice DMEM.
Cerebellar neurons (post-natal days 2-7) were dissociated by trypsinization as described in Example 1, except that the dissociated neurons were resuspended in 5 ml of SATO medium containing 2% dialyzed FBS. To an individual well coated with a monolayer of L1-Fc as described above, 5.0×10^4 cerebellar neurons were added, followed by addition of one of the mutant MAG-Fc or MUC18-Fc chimeric soluble protein described above at a concentration of 25 μg/ml. Neurons were cultured for 18 hours at 37° C., and then fixed and stained for GAP43 essentially as described in Example 2. Neurite length was measured for 180-200 neurons.

## M433: peptide of MAG amino acid residues 433-457 (SEQ ID NO: 20) (VVKSNPEPSVAFELPSRNVTVNETE)
[1]
  attenuation of inhibition of neurite outgrowth by MAG: even more strongly attenuated inhibition by MAG

## M462: peptide of MAG amino acid residues 462-486 (SEQ ID NO: 24) (YSERSGLLLTSILTLRGQAQAPPRV)
[1]
  attenuation of inhibition of neurite outgrowth by MAG: even more strongly attenuated inhibition by MAG

## MAG(422-451): peptide of MAG amino acid residues 422-451 (SEQ ID NO: 15) (AAARDTVQCLCVVKSNPEPSVAFELPSRNV)
[1]
  effect on the ability of MAG-expressing cells to inhibit neurite outgrowth: strongly attenuated inhibition by MAG
  neurite length relative to neurites extended without peptide or with MAG Igd4 peptides: at least twice as long

## MAG(442-471): peptide of MAG amino acid residues 442-471 (SEQ ID NO: 16) (VAFELPSRNVTVNETEREFVYSERSGLLLT)
[1]
  effect on the ability of MAG-expressing cells to inhibit neurite outgrowth: strongly attenuated inhibition by MAG
  neurite length relative to neurites extended without peptide or with MAG Igd4 peptides: at least twice as long

## MAG(461-498): 38 amino acid peptide of MAG residues 461-498 (SEQ ID NO: 23) (VYSERSGLLLTSILTLRGQAQAPPRVICTSRNLYGTQS)
[1]
  effect on the ability of MAG-expressing cells to inhibit neurite outgrowth: no apparent effect on inhibition of neurite outgrowth by MAG; also recorded: does not reduce the ability of wild-type MAG to inhibit neurite outgrowth

B1: MAG(K435E)-Fc: murine MAG-Fc with point mutation K435E, Ig domain 5 (protein, listed as Mus sp.)
chain: MIFLATLPLFWIMISASRGGHWGAWMPSTISAFEGTCVSIPCRFDFPDELRPAVVHGVWYFNSPYPKNYPPVVFKSRTQVVHESFQGRSRLLGDLGLRNCTLLLSTLSPELGGKYYFRGDLGGYNQYTFSEHSVLDIVNTPNIVVPPEVVAGTEVEVSCMVPDNCPELRPELSWLGHEGLGEPTVLGRLREDEGTWVQVSLLHFVPTREANGHRLGCQAAFPNTTLQFEGYASLDVKYPPVIVEMNSSVEAIEGSHVSLLCGADSNPPPLLTWMRDGMVLREAVAKSLYLDLEEVTPGEDGVYACLAENAYGQDNRTVELSVMYAPWKPTVNGTVVAVEGETVSILCSTQSNPDPILTIFKEKQILATVIYESQLQLELPAVTPEDDGEYWCVAENQYGQRATAFNLSVEFAPIILLESHCAAARDTVQCLCVVESNPEPSVAFELPSRNVTVNETEREFVYSERSGLLLTSILTIRGQAQAPPRVICTSRNLYGTQSLELPFQGAHRLMWAKIGPVGAVVAFAILIAIVCYITQTRRKKNVTESSSFSGGDNPHVLYSPEFRISGAPDKYESREVSTRDCH
modifications: Fc fusion
Cerebellar neurons
  inhibition of neurite outgrowth (in words): none

B2: MAG(E445K)-Fc: murine MAG-Fc with point mutation E445K, Ig domain 5 (protein, listed as Mus sp.)
chain: MIFLATLPLFWIMISASRGGHWGAWMPSTISAFEGTCVSIPCRFDFPDELRPAVVHGVWYFNSPYPKNYPPVVFKSRTQVVHESFQGRSRLLGDLGLRNCTLLLSTLSPELGGKYYFRGDLGGYNQYTFSEHSVLDIVNTPNIVVPPEVVAGTEVEVSCMVPDNCPELRPELSWLGHEGLGEPTVLGRLREDEGTWVQVSLLHFVPTREANGHRLGCQAAFPNTTLQFEGYASLDVKYPPVIVEMNSSVEAIEGSHVSLLCGADSNPPPLLTWMRDGMVLREAVAKSLYLDLEEVTPGEDGVYACLAENAYGQDNRTVELSVMYAPWKPTVNGTVVAVEGETVSILCSTQSNPDPILTIFKEKQILATVIYESQLQLELPAVTPEDDGEYWCVAENQYGQRATAFNLSVEFAPIILLESHCAAARDTVQCLCVVKSNPEPSVAFKLPSRNVTVNETEREFVYSERSGLLLTSILTIRGQAQAPPRVICTSRNLYGTQSLELPFQGAHRLMWAKIGPVGAVVAFAILIAIVCYITQTRRKKNVTESSSFSGGDNPHVLYSPEFRISGAPDKYESREVSTRDCH
modifications: Fc fusion
Cerebellar neurons
  inhibition of neurite outgrowth (in words): none

B3: MAG(R485D)-Fc: murine MAG-Fc with point mutation R485D, Ig domain 5 (protein, listed as Mus sp.)
chain: MIFLATLPLFWIMISASRGGHWGAWMPSTISAFEGTCVSIPCRFDFPDELRPAVVHGVWYFNSPYPKNYPPVVFKSRTQVVHESFQGRSRLLGDLGLRNCTLLLSTLSPELGGKYYFRGDLGGYNQYTFSEHSVLDIVNTPNIVVPPEVVAGTEVEVSCMVPDNCPELRPELSWLGHEGLGEPTVLGRLREDEGTWVQVSLLHFVPTREANGHRLGCQAAFPNTTLQFEGYASLDVKYPPVIVEMNSSVEAIEGSHVSLLCGADSNPPPLLTWMRDGMVLREAVAKSLYLDLEEVTPGEDGVYACLAENAYGQDNRTVELSVMYAPWKPTVNGTVVAVEGETVSILCSTQSNPDPILTIFKEKQILATVIYESQLQLELPAVTPEDDGEYWCVAENQYGQRATAFNLSVEFAPIILLESHCAAARDTVQCLCVVKSNPEPSVAFELPSRNVTVNETEREFVYSERSGLLLTSILTIRGQAQAPPDVICTSRNLYGTQSLELPFQGAHRLMWAKIGPVGAVVAFAILIAIVCYITQTRRKKNVTESSSFSGGDNPHVLYSPEFRISGAPDKYESREVSTRDCH
modifications: Fc fusion
Cerebellar neurons
  inhibition of neurite outgrowth (in words): none

B4: MAG(R491E)-Fc: murine MAG-Fc with point mutation R491E, Ig domain 5/TM (protein, UniProt P20917 20-516, looked up, variant R491E)
extracellular domain: GHWGAWMPSTISAFEGTCVSIPCRFDFPDELRPAVVHGVWYFNSPYPKNYPPVVFKSRTQVVHESFQGRSRLLGDLGLRNCTLLLSTLSPELGGKYYFRGDLGGYNQYTFSEHSVLDIVNTPNIVVPPEVVAGTEVEVSCMVPDNCPELRPELSWLGHEGLGEPTVLGRLREDEGTWVQVSLLHFVPTREANGHRLGCQAAFPNTTLQFEGYASLDVKYPPVIVEMNSSVEAIEGSHVSLLCGADSNPPPLLTWMRDGMVLREAVAKSLYLDLEEVTPGEDGVYACLAENAYGQDNRTVELSVMYAPWKPTVNGTVVAVEGETVSILCSTQSNPDPILTIFKEKQILATVIYESQLQLELPAVTPEDDGEYWCVAENQYGQRATAFNLSVEFAPIILLESHCAAARDTVQCLCVVKSNPEPSVAFELPSRNVTVNETEREFVYSERSGLLLTSILTIRGQAQAPPRVICTSENLYGTQSLELPFQGAHRLMWAKIGP
modifications: extracellular domain Fc fusion
notes: murine MAG-Fc with point mutation R491E, Ig domain 5/TM
Cerebellar neurons
  inhibition of neurite outgrowth (in words): none
